These results are taken from patent US20160115136A1, “COMPOUNDS, COMPOSITIONS COMPRSING SAME, AND METHODS RELATED THERETO” (UNIVERSITY OF IOWA RESEARCH FOUNDATION, priority 2013, published 2016).

In brackets after ≈: the same amount, converted by molar mass. Several values for one entry are separate records, joined by “and”; a condition that tells them apart may be missing. Equal entries are not always repeated. Where two headings read alike, the source gives them in different places.

Data set [1] addresses T1, glutamate racemase (GR) from B. subtilis (Bacillus subtilis, UniProt P94556). The note with it: for Ki: read-out: Ki value.
Data set [2] deals with T1, glutamate racemase (GR) from B. subtilis. Nature of the data set: biochemical.
The test system of data set [3] is B. subtilis DB104. Nature of the data set: Inhibition of bacterial growth (MIC50, absorbance at 600 nm, 24 h).
In data set [4] the test system is S. aureus. Nature of the data set: Cell wall lysis assay (modified CytoTox-Glo, luminescence).
Data set [5] addresses GR from B. anthracis isozyme 1 (RacE1) (Bacillus anthracis, UniProt A0A6L8PVU3). Nature of the data set: biochemical.
Data set [6] has as its target T2, glutamate racemase isozyme 2 from Bacillus anthracis (RacE2) (Bacillus anthracis, UniProt A0A6L8PKK6). Nature of the data set: biochemical. Format: biochemical.
The target of data set [7] is GR from F. tularensis (Francisella tularensis, UniProt Q5NFN6). Nature of the data set: biochemical.
Sequence of GR from F. tularensis (Q5NFN6 1-265): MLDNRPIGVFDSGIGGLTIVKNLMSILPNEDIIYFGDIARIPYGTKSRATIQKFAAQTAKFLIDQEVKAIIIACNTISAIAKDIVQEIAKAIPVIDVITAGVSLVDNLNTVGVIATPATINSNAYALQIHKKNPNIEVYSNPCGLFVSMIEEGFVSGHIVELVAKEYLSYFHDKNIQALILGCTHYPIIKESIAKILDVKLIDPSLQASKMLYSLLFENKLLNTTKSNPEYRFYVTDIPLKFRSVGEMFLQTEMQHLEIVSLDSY
The subject of data set [8] is E. coli Acella. Nature of the data set: Inhibition of bacterial growth (MIC50, absorbance at 600 nm, 24 h). The note with it: for growth inhibition: concentrations <3 mg mL^−1.
Data set [9] deals with S. aureus ATCC 12600. Described as above. The following applies: for growth inhibition: concentrations <3 mg mL^−1.
The test system of data set [10] is glutamate racemase isozyme 2 from Bacillus anthracis (RacE2). Nature of the data set: biochemical. Format: biochemical. The following applies: FIG. 14, competitive inhibition model.
The target of data set [11] is T3, glutamate racemase from H. pylori (Helicobacter pylori, UniProt P56068).
T3 sequence (P56068 1-255): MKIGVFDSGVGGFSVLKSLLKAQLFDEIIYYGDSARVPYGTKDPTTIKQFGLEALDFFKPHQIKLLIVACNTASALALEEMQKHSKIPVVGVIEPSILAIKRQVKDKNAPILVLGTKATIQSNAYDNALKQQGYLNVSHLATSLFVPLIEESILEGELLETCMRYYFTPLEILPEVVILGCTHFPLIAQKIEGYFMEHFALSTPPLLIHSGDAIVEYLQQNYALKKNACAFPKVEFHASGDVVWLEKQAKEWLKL
The format is biochemical.

The subject of data set [12] is B. subtilis. The data set can be described thus: Cell wall lysis assay (modified CytoTox-Glo, luminescence).
Data set [13] deals with T2, glutamate racemase isozyme 2 from Bacillus anthracis (RacE2). The format is biochemical. The following applies: 25° C., pH 8.0.
Setting [14] is: Ki converted into binding energy divided by number of non-hydrogen atoms.
The mark [15] stands for this setting: from log(Ki) and calculated logP (MarvinSketch).
[16] abbreviates: Staphylococcus aureus, ATCC12600.

T1 sequence (P94556 whole entry): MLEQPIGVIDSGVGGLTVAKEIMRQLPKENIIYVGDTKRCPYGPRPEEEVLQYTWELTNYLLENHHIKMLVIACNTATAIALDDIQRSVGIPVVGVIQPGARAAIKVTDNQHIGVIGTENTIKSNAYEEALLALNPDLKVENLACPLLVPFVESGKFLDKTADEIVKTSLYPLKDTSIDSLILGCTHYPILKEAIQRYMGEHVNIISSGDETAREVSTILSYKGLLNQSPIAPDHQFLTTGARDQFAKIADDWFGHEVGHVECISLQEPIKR
T2 sequence (A0A6L8PKK6 1-269): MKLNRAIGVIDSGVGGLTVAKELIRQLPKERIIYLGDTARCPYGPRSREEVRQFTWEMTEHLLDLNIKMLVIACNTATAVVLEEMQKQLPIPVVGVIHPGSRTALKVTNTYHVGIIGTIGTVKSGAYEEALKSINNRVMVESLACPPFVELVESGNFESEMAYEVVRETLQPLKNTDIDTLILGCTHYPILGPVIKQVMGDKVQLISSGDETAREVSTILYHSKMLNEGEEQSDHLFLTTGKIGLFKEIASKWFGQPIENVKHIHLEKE
Sequence of GR from B. anthracis isozyme 1 (RacE1) (A0A6L8PVU3 1-276): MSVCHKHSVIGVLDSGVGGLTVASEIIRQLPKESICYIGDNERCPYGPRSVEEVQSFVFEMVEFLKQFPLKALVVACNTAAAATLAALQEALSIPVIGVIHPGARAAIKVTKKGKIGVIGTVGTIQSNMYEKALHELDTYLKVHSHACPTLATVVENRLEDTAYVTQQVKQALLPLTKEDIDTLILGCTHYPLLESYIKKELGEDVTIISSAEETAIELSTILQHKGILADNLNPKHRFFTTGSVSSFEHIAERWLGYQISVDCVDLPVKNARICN

In the case of `Cc1ccc2[nH]c(S(=O)(=O)O)nc2c1` [Compound 15], the “LE (ligand efficiency)” value in data set [1] (setting [14]) amounted to 0.46 kcal mol^−1 atom^−1. The “LiPE (lipophilic efficiency)” value in [1] (setting [15]) is recorded as 4.4. The compound further had a Ki in data set [2] of 21 ± 5 µM. Also, the MIC50 in [3] (Bacillus subtilis, DB104) was > 3000 µg/mL.

`CC1(C)S[C@@H]2[C@H](NC(=O)[C@H](N)c3ccccc3)C(=O)N2[C@H]1C(=O)O` [ampicillin, reference compound]: the “luminescence response (cell lysis)” value in data set [4] (S. aureus exposed 24 h, control antibiotics, FIG. 23A) is “dose-dependent increase in luminescence”.

Turning to `O=C(c1ccccc1)c1ccc2[nH]c(S(=O)(=O)O)nc2c1` [Compound 24], the “loss in binding affinity versus parent compound” value in [1] is given as ~100 fold. Further, in data set [1] (setting [14]), the “LE (ligand efficiency)” value worked out at 0.20 kcal mol^−1 atom^−1. The “LiPE (lipophilic efficiency)” value in data set [1] (setting [15]) is 1.9. Further, in data set [2], the inhibitory constant (Ki) was determined as 830 ± 75 µM. The MIC50 in [3] (Bacillus subtilis, DB104) turned out to be 140 ± 20 µg/mL (≈ 0.463 mM).

For `O=S(=O)(O)c1nc2ccccc2[nH]1` [Compound 2, 1H-benzimidazole-2-sulfonic acid], the IC50 in [5] was found to be 120 ± 5 µM; in data set [6], 40 ± 5 µM; in [7], 110 ± 12 µM; in [2], 250 ± 20 µM. For the same compound, the “LE (ligand efficiency)” value in [1] is 0.53 kcal mol^−1 atom^−1. For the same compound, in data set [1], the “LiPE (lipophilic efficiency)” value stood at 5.3. Besides, in data set [1] (GR from B. subtilis), the Ki is 9 µM. The same compound displayed an MIC50 in data set [3] (Bacillus subtilis, DB104) of 720 ± 60 µg/mL (≈ 3.63 mM).

Regarding `CCCCNS(=O)(=O)c1ccc2[nH]c(S(=O)(=O)O)nc2c1` [Compound 18, 5-(n-butylsulfamoyl)-1H-benzo[d]imidazole-2-sulfonic acid], the “LE (ligand efficiency)” value in [1] (setting [14]) stood at 0.30 kcal mol^−1 atom^−1. The “LiPE (lipophilic efficiency)” value in data set [1] (setting [15]) is listed as 5.0. Also, in [2], the affinity, expressed as Ki, was 12 ± 3.6 µM. For the same compound, the MIC50 in [3] (Bacillus subtilis, DB104) is 360 ± 20 µg/mL (≈ 1.08 mM); in data set [8] (Escherichia coli), > 3000 µg/mL; in [9] (setting [16]), > 3000 µg/mL. The growth inhibition entry in data set [8] (E. coli) and in data set [9] (S. aureus) was “no significant growth inhibition” in each case.

`O=S(=O)(O)c1nc2cc(S(=O)(=O)N3CCOCC3)ccc2[nH]1` [Compound 29, 5-(morpholinosulfonyl)-1H-benzo[d]imidazole-2-sulfonic acid]: the “LE (ligand efficiency)” value in [1] (setting [14]) came to 0.34 kcal mol^−1 atom^−1. For the same compound, the “LiPE (lipophilic efficiency)” value in data set [1] (setting [15]) was 6.6. In data set [2], this compound had a Ki of 6.4 µM. Besides, the MIC50 in data set [3] (Bacillus subtilis, DB104) was 320 ± 10 µg/mL (≈ 0.921 mM); in [8] (Escherichia coli), > 3000 µg/mL; in data set [9] (setting [16]), > 3000 µg/mL. Further, the growth inhibition entry in data set [8] (E. coli) and in data set [9] (S. aureus) was “no significant growth inhibition” throughout.

Consider “7-fluoro-2-sulfo-1H-benzo[d]imidazole-5-carboxylic acid [Compound 4] [listing 1 of 2 here]”, for which, in [10], the “potency against B. anthracis RacE2 relative to B. subtilis GR” value was “equal potency”. Also, the concentration for half-maximal inhibition (IC50) was 102 µM in data set [11] (best-fit value, Table 5) and ~100 µM in data set [11] (dose-response inhibition model, FIG. 16). For the same compound, the “Hill Slope (best-fit value)” value in [11] (dose-response fit) is recorded as −6.498. Further, the “LogIC50 (best-fit value)” value in data set [11] (log of compound concentration in mM) was −0.9935. The “LE (ligand efficiency)” value in [1] (setting [14]) is reported as 0.45 kcal mol^−1 atom^−1. Besides, in data set [1], the Ki turned out to be 2.5 µM. For the same compound, the EC50 for lysis in data set [12] was 520 µg/mL. The increase in luminescence in data set [12] (low-millimolar range) is 400%; in data set [4] (S. aureus, millimolar inhibitor concentration range), ~40%. The EC50 in data set [12] (read-out: EC50 value of cell lysis, FIG. 17, within the same range as the MIC50) is ~2 mM. Moreover, the MIC50 was 260 ± 110 µg/mL in data set [3] (B. subtilis); 1,788 μM and 460 μg/mL in data set [3] (B. subtilis, FIG. 15); 1600 ± 200 µg/mL in data set [8] (E. coli); 1000 ± 250 µg/mL in data set [9] (S. aureus). The “MIC50 value for growth inhibition” value in data set [3] (B. subtilis) worked out at 260 µg/mL. For the same compound, the “MIC50 value for bacterial growth inhibition” value in [3] (B. subtilis, FIG. 17) was determined as 2 mM.

In data set [13], “7-fluoro-2-sulfo-1H-benzo[d]imidazole-5-carboxylic acid [Compound 4] [listing 2 of 2 here]” came in with an inhibitory constant (Ki) of 5.4 ± 2.5 µM.

On to `O=S(=O)(O)c1nc2ccc(Cl)cc2[nH]1` [Compound 26], for which the “LE (ligand efficiency)” value in data set [1] (setting [14]) amounted to 0.48 kcal mol^−1 atom^−1. Further, the “LiPE (lipophilic efficiency)” value in data set [1] (setting [15]) is 4.5. In [2], the Ki turned out to be 13 ± 2.4 µM. Besides, in [3] (Bacillus subtilis, DB104), the MIC50 was > 3000 µg/mL.
